Like-named read-outs stand apart in the source and are kept apart here.
Assays:
[1] = Solubility (physicochemical properties); details: for Solubility: DMSO: solvent DMSO; for Solubility: Chloroform: solvent chloroform; for Solubility: Ethanol: solvent ethanol; for Solubility: Ethyl acetate: solvent ethyl acetate; for Solubility: Methanol: solvent methanol; for Solubility: Water: solvent water
[2] = test system: HL-60 cells (human promyelocytic leukemia cells); assay: Cancer cell growth suppressing action using HL-60 cells (MTT method, Cell counting kit-8); assay type: cell-based; details: 24 hours, 6.3-100 μM, read-out: Cell growth suppressing ability to HL-60 (IC50)
Experimental: Next, in order to see the effect of the phenolic polymerizable compound to cancer cells, cancer cell growth suppressing action using HL-60 cells (human promyelocytic leukemia cells) was tested.
For culturing the HL-60 cells, an enriched culture medium “RPMI-1640” (manufactured by Sigma-Aldrich Japan) containing 4 mM glutamine (L-Glutamine, manufactured by Sigma-Aldrich Japan) and 10% FBS (Foetal Bovine Serum, manufactured by Biological Industries) was used. For the test, a 96-well plate for cell culture (manufactured by Corning Japan) was used, and the HL-60 cells whose number of cells was adjusted to be 5×10^5 cells/mL were seeded at 100 μL per well.
As samples, p-coumaric acid, ferulic acid, coffeic acid, and sinapic acid, and the UHA6005, the UHA6006, the UHA7004, the UHA7009, the UHA7010, the UHA7011, the UHA8015, the UHA9019, and the UHA9020 which were already purified were used. With respect to the preparation of the samples, each compound was dissolved in DMSO (Wako Pure Chemical Industries, Ltd.), and then adjusted in such a manner that the final concentration in the HL-60 cell culture solutions was 6.3 μM, 12.5 μM, 25 μM, 50 μM, and 100 μM. Then, the test was started.
The number of viable cells was quantified by an MTT method using a “Cell counting kit-8” (manufactured by DOJINDO LABORATORIES). 24 hours after starting the test, 10 μl of a Cell counting kit-8 solution was added to each well, and then sufficiently stirred. After a shading reaction for 1 hour, the absorbancy was measured at a measurement wavelength of 450 nm using a plate leader (Biorad Laboratories, Inc., “BIO-RAD Model 680”). Then, the cell viability was calculated based on the obtained data. The cell viability is a value obtained by setting the number of viable cells of the culture liquid to which only DMSO as a solvent was added to 100%, and then calculating the number of viable cells under the concentration of each compound as a relative value. From the relationship between the concentration of each compound and the cell viability, the concentration IC50 (50% inhibition concentration) at which the cell growth is suppressed by 50% was calculated.

[3] = target: rat intestine derived lipase; assay: Lipase inhibitory action test (Lipase kit S); assay type: biochemical; details: 30° C., 10 minutes reaction
Experimental: In order to see the inhibitory action to lipase of the phenolic polymerizable compound, an inhibitory action test using rat intestine derived lipase was performed.
As lipase, one obtained by suspending 100 mg of rat derived intestine acetone powder (manufactured by Sigma-Aldrich Japan) in 1 ml of 100 mM citric acid buffer (pH 6.0), stirred at 4° C. for 1 hour, centrifuging the same (at 15000 rpm for 45 minutes at 4° C.), and then diluting the supernatant by 1500 times was used as a lipase solution.
As samples, p-coumaric acid, ferulic acid, and coffeic acid and the UHA6005, the UHA6006, the UHA7009, the UHA7010, the UHA7011, the UHA8015, and the UHA9020 which were already purified were used. With respect to the preparation of the samples, each compound was dissolved in DMSO, and then prepared in such a manner as to achieve 0.1 mM, 0.5 mM, 1 mM, 2 mM, and 4 mM.
For measuring the activity, a “Lipase kit S” (Trade name, manufactured by Dainippon Pharmaceutical Co., Ltd.) was used. First, in accordance with a preparation method described in the catalog of the Lipase kit S, a color developing liquid was prepared. Reaction liquids in which 70 μl of the color developing liquid, 2 μl of an esterase inhibitor, 10 μl of the lipase solution, and 10 μl of the samples (Final concentration: 10 μM, 50 μM, 100 μM, 200 μM, 400 μM, and 1000 μM) were mixed were prepared, preincubated at 30° C. for 5 minutes, and then 8 μl of a substrate solution described in the catalog was added. Then, a reaction was started. After reacting for 10 minutes, 150 μl of a reaction stop liquid prepared in accordance with the preparation method described in the catalog of the Lipase kit S was added to stop the reaction. The resultant substance was subjected to a measurement of absorbancy at a wavelength of 415 nm. A reaction liquid to which only DMSO as the solvent of the sample was added was used as a positive control and one to which 10 μl of 100 mM citric acid buffer (pH 6.0) was added instead of the lipase solution was used as a negative control. From the relationship between the lipase inhibition rate calculated based on the data obtained therefrom and the concentration of each compound, the concentration IC50 at which the lipase activity is inhibited by 50% was calculated.

[4] = test system: SCC-4 cells (human oral cancer cells, ATCC); assay: Cancer cell growth suppressing action using SCC-4 cells (MTT method, Cell counting kit-8); assay type: cell-based; details: 6.3-100 μM, read-out: Cell growth suppressing ability (IC50)
Experimental: Next, in order to see the effect of the phenolic polymerizable compound to oral cancer cells, cancer cell growth suppressing action using SCC-4 cells (human oral cancer cells, ATCC) was tested.
For culturing the SCC-4 cells, a DMEM/F-12 (1:1) culture medium (manufactured by GIBCO) containing 400 ng/mL hydrocortisone (manufactured by Sigma-Aldrich Japan), 1% antibiotic-antimycotic (manufactured by GIBCO), and 10% FBS (Foetal Bovine Serum, manufactured by ATCC) was used. For the test, a collagen I coat 96 well plate for cell culture (manufactured by Japan BD) was used, and SCC-4 cells whose number of cells was adjusted to be 5×10^5 cells/mL were seeded at 100 μL per well. The cells were cultured under the conditions of 37° C. and 5% CO2 for 24 hours, and were used for the test in a confluent state of 80% or higher.
As samples, p-coumaric acid and coffeic acid and the UHA6005, the UHA7009, the UHA7010, and the UHA7011 which were already purified were used. With respect to the preparation of the samples, each compound was dissolved in DMSO, and then prepared in such a manner as to achieve 0.63 mM, 1.25 mM, 2.5 mM, 5 mM, and 10 mM. The samples were added in such a manner that the final concentration in the SCC-4 cell culture solution was 6.3 μM, 12.5 μM, 25 μM, 50 μM, and 100 μM. Then, the test was started. A sample to which an equivalent amount of only DMSO as the solvent was added was used as a negative control.
The number of viable cells was quantified by an MTT method using a “Cell counting kit-8” in the same manner as in Example 18, and the concentration IC50 at which the cell growth is suppressed by 50% was calculated.

| Solubility: DMSO [1] | Solubility: Chloroform [1] | Solubility: Ethanol [1] | Solubility: Ethyl acetate [1] | Solubility: Methanol [1] | Solubility: Water [1] | IC50 ([2]; Homo sapiens) | IC50 [3] | IC50 [2] | IC50 [4] | IC50 ([4]; Homo sapiens) | SMILES |
| --- | --- | --- | --- | --- | --- | --- | --- | --- | --- | --- | --- |
| Soluble | Soluble | Soluble | Soluble | Soluble | Non-soluble | 74.3 µM | 350 µM |  |  |  | COc1cc(C(C)/C=C/c2ccc(O)cc2)ccc1O (single isomer, unassigned) [UHA8015] |
|  |  |  |  |  |  |  | > 1000 µM | > 100 µM | > 100 µM |  | O=C(O)/C=C/c1ccc(O)c(O)c1 [Coffeic acid, reference compound] |
|  |  |  |  |  |  | > 100 µM | > 1000 µM |  |  |  | COc1cc(/C=C/C(=O)O)ccc1O [Ferulic acid, reference compound] |
|  |  |  |  |  |  | > 100 µM |  |  |  |  | COc1cc(/C=C/C(=O)O)cc(OC)c1O [Sinapic acid, reference compound] |
| Soluble | Soluble | Soluble | Soluble | Soluble | Poorly soluble | 43.7 µM | 253 µM |  |  | 69.7 µM | CC(/C=C/c1ccc(O)c(O)c1)c1ccc(O)c(O)c1 (centres unmarked) [UHA6005] |
| Soluble | Soluble | Soluble | Soluble | Soluble | Poorly soluble | 42.4 µM | 188 µM |  |  |  | CC(/C=C/c1cc(O)c(O)cc1C(C)c1ccc(O)c(O)c1)c1ccc(O)c(O)c1 (centres unmarked) [UHA6006] |
| Soluble | Soluble | Soluble | Soluble | Soluble | Poorly soluble | 17.6 µM |  |  |  |  | COc1cc(/C=C/C(C)c2ccc(O)c(OC)c2)ccc1O (centres unmarked) [UHA7004] |
| Soluble | Soluble | Soluble | Soluble | Soluble | Poorly soluble | 49.3 µM | 438 µM |  |  | 72.9 µM | CC(/C=C/c1ccc(O)cc1)c1ccc(O)cc1 (centres unmarked) [UHA7009] |
| Soluble | Soluble | Soluble | Soluble | Soluble | Poorly soluble | 35.3 µM | 60.4 µM |  |  | 61.1 µM | CC(CC(/C=C/c1ccc(O)cc1)c1ccc(O)cc1)c1ccc(O)cc1 (centres unmarked) [UHA7010] |
| Soluble | Soluble | Soluble | Soluble | Soluble | Poorly soluble | 35.4 µM | 197 µM |  |  | 40.8 µM | CC(/C=C/c1ccc(O)c(C(C)c2ccc(O)cc2)c1)c1ccc(O)cc1 (centres unmarked) [UHA7011] |
| Soluble | Soluble | Soluble | Soluble | Soluble | Poor soluble | 66.2 µM |  |  |  |  | COc1cc(/C=C/C(C)c2cc(OC)c(O)c(OC)c2)cc(OC)c1O (centres unmarked) [UHA9019] |
| Soluble | Soluble | Soluble | Soluble | Soluble | Non-soluble | 38.5 µM | 118 µM |  |  |  | COc1cc(/C=C/C(C)c2ccc(O)c(O)c2)ccc1O (centres unmarked) [UHA9020] |
|  |  |  |  |  |  | > 100 µM | > 1000 µM |  |  | > 100 µM | O=C(O)/C=C/c1ccc(O)cc1 [p-coumaric acid, reference compound] |

From US20130310611A1, “PROCESS FOR PRODUCTION OF PHENOLIC POLYMERIZABLE COMPOUND HAVING PHYSIOLOGICAL ACTIVITY” (UHA MIKAKUTO CO., LTD., priority 2010, published 2013)
